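Five compound concentrations were applied to cells in 96-well plates for 48 hours; endpoints were derived by simple linear interpolation of the resulting dose-response curve. TGI denotes the concentration required for complete inhibition of growth.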
What was measured:
Assay in all cases: NCI anticancer screen, dose series, 48 h
[1] = tested on: HT29 colon
[2] = tested on: A498 renal
[3] = tested on: HS 578T breast
[4] = tested on: NCI-H23 lung
[5] = tested on: MDA-MB-231 breast
[6] = tested on: SK-MEL-28 melanoma
[7] = tested on: RXF 393 renal
[8] = tested on: HOP-92 NSCLC
[9] = tested on: OVCAR-5 ovarian
[10] = tested on: MDA-MB-435
[11] = tested on: M14 melanoma
[12] = tested on: COLO 205 colon
[13] = tested on: MOLT-4 leukemia
[14] = tested on: IGROV1 ovarian
[15] = tested on: EKVX NSCLC
[16] = tested on: HCT-15 colon
[17] = tested on: OVCAR-8 ovarian
[18] = tested on: NCI-H460 lung
[19] = tested on: UO-31 renal
[20] = tested on: SF-295 CNS
[21] = tested on: MDA-N
[22] = tested on: SK-MEL-2 melanoma
[23] = tested on: BT-549 breast
[24] = tested on: 786-0 renal
[25] = tested on: SF-268 CNS
[26] = tested on: SW-620 colon
[27] = tested on: UACC-257 melanoma
[28] = tested on: CAKI-1 renal
[29] = tested on: UACC-62 melanoma
[30] = tested on: MALME-3M melanoma
[31] = tested on: HCT-116 colon
[32] = tested on: NCI/ADR-RES ovarian
[33] = tested on: PC-3 prostate
[34] = tested on: SNB-19 CNS
[35] = tested on: NCI-H522 lung
[36] = tested on: ACHN renal
[37] = tested on: MCF7 breast
[38] = tested on: U251 CNS
[39] = tested on: NCI-H226 lung
[40] = tested on: SK-MEL-5 melanoma
[41] = tested on: DU-145 prostate
[42] = tested on: SR leukemia
[43] = tested on: K-562 leukemia
[44] = tested on: CCRF-CEM leukemia
[45] = tested on: T-47D breast
[46] = tested on: HL-60(TB) leukemia
[47] = tested on: OVCAR-4 ovarian
[48] = tested on: SF-539 CNS
[49] = tested on: HOP-62 NSCLC
[50] = tested on: RPMI-8226 leukemia
[51] = tested on: A549 NSCLC
[52] = tested on: LOX IMVI melanoma
[53] = tested on: SN12C renal
[54] = tested on: TK-10 renal
[55] = tested on: SK-OV-3 ovarian
[56] = tested on: OVCAR-3 ovarian
[57] = tested on: KM12 colon

In the case of CCCCn1c(C)c(C(=O)CC)c(C(=O)NCCN2CCN(c3ccccc3Cl)CC2)c1C, the TGI [1] is reported as 29.2 µM, the TGI [2] is reported as 32.3 µM and the TGI [3] is reported as 58.1 µM. The TGI [4] was 30.5 µM, the TGI [5] was 33.8 µM and the TGI [6] was 48.2 µM. The TGI [7] was 39.4 µM, the TGI [8] was 27.7 µM and the TGI [9] was 33.3 µM. It also gave a TGI [10] of 36.4 µM, a TGI [11] of 33.5 µM and a TGI [12] of 28.4 µM. It also gave a TGI [13] of 50.1 µM, a TGI [14] of 30.9 µM and a TGI [15] of 33.1 µM. It also gave a TGI [16] of 31.6 µM, a TGI [17] of 35.8 µM and a TGI [18] of 28.9 µM. The TGI [19] was 27.1 µM, the TGI [20] was 34.6 µM and the TGI [21] was 31 µM. It also gave a TGI [22] of 32.1 µM, a TGI [23] of 30.3 µM and a TGI [24] of 32.5 µM. The TGI [25] was 37.7 µM, the TGI [26] was > 100 µM and the TGI [27] was 26.3 µM. It also gave a TGI [28] of 32.3 µM, a TGI [29] of 29.9 µM and a TGI [30] of 34.4 µM. It also gave a TGI [31] of 27.7 µM, a TGI [32] of 34.3 µM and a TGI [33] of 31.1 µM. It also gave a TGI [34] of 31.3 µM, a TGI [35] of 33.3 µM and a TGI [36] of 30.2 µM. The TGI [37] was 36.2 µM, the TGI [38] was 31.3 µM and the TGI [39] was 37.8 µM. The TGI [40] was 28.7 µM, the TGI [41] was 35.4 µM and the TGI [42] was 60.1 µM. The TGI [43] was > 100 µM, the TGI [44] was > 100 µM and the TGI [45] was 51.2 µM. For the same compound, the TGI [46] was 49.5 µM, the TGI [47] was 34.6 µM and the TGI [48] was 34.9 µM. It also gave a TGI [49] of 40.6 µM, a TGI [50] of 81.8 µM and a TGI [51] of 32.9 µM. It also gave a TGI [52] of 35.6 µM, a TGI [53] of 30.9 µM and a TGI [54] of 33.9 µM. For the same compound, the TGI [55] was 35.7 µM, the TGI [56] was 48.1 µM and the TGI [57] was 37.5 µM.
